From article PMC6398150 (Journal of Medicinal Chemistry, 2019)

Key:
Type in all cases: biochemical
[1] = molecular target: T1, group V secreted PLA2 (sPLA2) (Homo sapiens, UniProt P39877); assay: Traditional radioactive assay
T1 sequence (P39877 21-138): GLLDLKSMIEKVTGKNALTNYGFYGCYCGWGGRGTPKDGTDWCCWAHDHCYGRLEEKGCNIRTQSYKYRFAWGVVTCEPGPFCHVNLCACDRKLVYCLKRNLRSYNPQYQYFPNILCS

[2] = molecular target: T1, group V secreted PLA2 (sPLA2); assay: Lipidomics LC-MS mixed micelle PLA2 assay, sPLA2
[3] = molecular target: group VIA calcium-independent (iPLA2) (Homo sapiens, UniProt O60733); assay: Lipidomics LC-MS mixed micelle PLA2 assay, iPLA2; conditions: for IC50: IC50, single phospholipid PAPC
group VIA calcium-independent (iPLA2), sequence (O60733 whole entry): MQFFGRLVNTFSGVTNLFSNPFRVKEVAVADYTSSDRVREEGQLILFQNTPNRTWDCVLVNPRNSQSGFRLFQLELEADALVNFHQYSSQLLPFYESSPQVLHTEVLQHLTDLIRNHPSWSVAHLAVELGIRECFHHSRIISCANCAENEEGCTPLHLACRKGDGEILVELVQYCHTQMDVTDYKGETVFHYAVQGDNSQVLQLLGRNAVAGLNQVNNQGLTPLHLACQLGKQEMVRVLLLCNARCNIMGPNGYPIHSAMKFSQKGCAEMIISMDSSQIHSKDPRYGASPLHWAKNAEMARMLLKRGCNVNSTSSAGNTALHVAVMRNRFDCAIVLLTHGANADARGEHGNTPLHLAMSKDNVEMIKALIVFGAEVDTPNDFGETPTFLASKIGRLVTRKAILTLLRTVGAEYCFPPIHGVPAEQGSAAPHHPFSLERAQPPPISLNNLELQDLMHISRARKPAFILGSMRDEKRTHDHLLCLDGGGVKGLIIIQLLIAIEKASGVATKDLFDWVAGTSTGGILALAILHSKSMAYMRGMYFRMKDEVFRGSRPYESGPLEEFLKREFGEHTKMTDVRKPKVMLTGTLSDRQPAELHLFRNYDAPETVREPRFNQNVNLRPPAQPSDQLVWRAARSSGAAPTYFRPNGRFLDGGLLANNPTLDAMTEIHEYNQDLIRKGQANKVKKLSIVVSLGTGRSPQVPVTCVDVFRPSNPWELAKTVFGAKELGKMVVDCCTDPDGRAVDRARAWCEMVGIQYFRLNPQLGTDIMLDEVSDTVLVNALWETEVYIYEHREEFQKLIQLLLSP

`CCc1c(C(=O)C(N)=O)c2c(OCC(=O)O)cccc2n1Cc1ccccc1` [Ly315920] was tested, and the IC50 [1] was 56 nM, the IC50 ([2]; IC50, single phospholipid PAPC, 16:0 LPC detected, positive ion mode) was 104 nM and the IC50 ([2]; IC50, single phospholipid PAPG, 16:0 LPG detected, positive ion mode) was 18000 nM. For the same compound, the IC50 ([2]; IC50, single phospholipid PAPG, free AA detected, negative ion mode) was 22000 nM and the “XI(50)” value ([2]; single phospholipid PAPC, free AA detected, negative ion mode) was 0.0002.
For `CCCCCCCCSCC(=O)C(F)(F)F` [OTFP], the IC50 ([3]; 16:0 LPC detected, positive ion mode) was 58 nM, the IC50 ([3]; free AA detected, negative ion mode) was 34 nM and the “greater inhibitor potency with PAPC as substrate versus PLPC” value ([3]; PAPC versus PLPC substrate) was “approximately twofold”.
